A short description of the series: Determination of log P values by HPLC on a reverse phase column (C18), EEC-Directive 79/831 Annex V.A8 (Methods A, B, C). The class given is physicochemical. As to conditions: for chromatographic logP: reverse phase C18 HPLC column. As to the method:
(§1) Note on the determination of the log P values and mass detection: The stated log P values were determined in accordance with EEC-Directive 79/831 Annex V.A8 by HPLC (High Performance Liquid Chromatography) on a reverse phase column (C18). Agilent 1100 LC system; 50*4.6 Zorbax Eclipse Plus C18 1.8 micron; eluent A: acetonitrile (0.1% formic acid); eluent B: water (0.09% formic acid); linear gradient from 10% acetonitrile to 95% acetonitrile in 4.25 mins, then 95% acetonitrile for a further 1.25 mins; oven temperature 55° C.; flow rate: 2.0 mL/min. The mass detection was effected with an Agilend MSD system.
as §1, with “HP1100;” for “Agilent 1100 LC system;”, “(0.08%” for “(0.09%”, “5%” for “10%”, “1.70 min,” for “4.25 mins,”, “1.00 min;” for “1.25 mins;”, “the Micronass ZQ2000 mass detector from Waters.” for “an Agilend MSD system.”
Note on the determination of the log P values and mass detection: The stated log P values were determined in accordance with EEC-Directive 79/831 Annex V.A8 by UPLC (Ultra Performance Liquid Chromatography) on a reverse phase column (C18). HP1100; 50*2.1 Zorbax Eclipse Plus C18 1.8 micron; eluent A: acetonitrile (0.09% formic acid); eluent B: water (0.1% formic acid); linear gradient from 10% A to 95% A in 3.25 min; oven temperature 40° C.; flow rate: 0.8 mL/min. The mass detection was effected with the LCT Premier or SQD mass detector from Waters.

Where [1] appears, read: pH 2.3, intermediates of formula [II], HPLC, reverse phase C18, read-out: LogP (pH 2.3).
[2] abbreviates: pH 2.7, values in the synthesis examples, HPLC, reverse phase C18, read-out: log P (pH 2.7).
Where [3] appears, read: Method B (HPLC, reverse phase C18).
Where [4] appears, read: pH 2.3, intermediates of formula [IV] and [XXXVII], HPLC, reverse phase C18, read-out: LogP (pH 2.3).
Where [5] appears, read: Method C (HPLC, reverse phase C18).
Setting [6] is: pH 2.3, intermediates of formula [VI], HPLC, reverse phase C18, read-out: LogP (pH 2.3).
Where [7] appears, read: Method C (HPLC, reverse phase C18), read-out: LogP.

Like-named read-outs stand apart in the source and are kept apart here.

On to `Nc1cc(-c2c(-c3ccc(F)cc3)nn3c2OCCC3)ccn1` [[II-2], 4-[2-(4-fluorophenyl)-6,7-dihydro-5H-pyrazolo[5,1-b][1,3]oxazin-3-yl]pyridin-2-amine], for which the chromatographic logP was 0.95 under setting [1] and 0.95 under setting [2]. Take `Fc1ccc(-c2cc3ncccn3n2)cc1` [[XXXVIII-1], 2-(4-Fluorophenyl)pyrazolo[1,5-a]pyrimidine]: the chromatographic logP under setting [2] stood at 2.17. Under setting [3], `Cc1noc(C)c1C(=O)Nc1cc(-c2c(-c3ccc(F)cc3)nn3c2OCCC3)ccn1` [Example 135] gave a LogP of 2.06.

As for `Fc1ccc(-c2nn3c(c2Br)OCCC3)c(F)c1` [[IV-3], 3-bromo-2-(2,4-difluorophenyl)-6,7-dihydro-5H-pyrazolo[5,1-b][1,3]oxazine], the chromatographic logP under setting [4] worked out at 2.7 and the chromatographic logP under setting [2] was determined as 2.7. In the case of `CC(C)C(=O)Nc1cc(-c2c(-c3ccc(F)cc3)nn3c2OCC(C)(C)C3)ccn1` [Example 111], under setting [5], the LogP is recorded as 2.23. As to `CC1CCOc2c(B3OC(C)(C)C(C)(C)O3)c(-c3ccc(F)cc3)nn21` (stereo not drawn) [[III-1], 2-(4-fluorophenyl)-7-methyl-3-(4,4,5,5-tetramethyl-1,3,2-dioxaborolan-2-yl)-6,7-dihydro-5H-pyrazolo[5,1-b][1,3]oxazine], the chromatographic logP under setting [2] turned out to be 3.5. The compound `N#CC1(C(=O)Nc2cc(-c3c(-c4ccc(F)cc4)nn4c3OCCC4)ccn2)CC1` [Example 120] came in with a lipophilicity (LogP) under setting [3] of 2.13.

`O=C(CC1=CCCCC1)Nc1cc(-c2c(-c3ccc(F)cc3)nn3c2OCCC3)ccn1` [Example 139] gave a LogP under setting [3] of 2.46.

With `Fc1ccc(-c2cc3n(n2)CCS3)cc1` [[VI-6], 6-(4-fluorophenyl)-2,3-dihydropyrazolo[5,1-b][1,3]thiazole], the chromatographic logP by setting is: under setting [6], 2.53; under setting [2], 2.53. Consider `Brc1c(-c2ccccc2)nn2cccnc12` [[XXXVII-1], 3-Bromo-2-phenylpyrazolo[1,5-a]pyrimidine], for which the chromatographic logP under setting [4] was 2.63 and the chromatographic logP under setting [2] was 2.63.

In turn, `C[Si]1(C)COc2c(-c3ccnc(NC(=O)C4CC4)c3)c(-c3cccs3)nn2C1` [Example 87] yielded a LogP under setting [5] of 2.08. Take `Cc1coc2c(Br)c(-c3ccc(F)cc3)nn12` [[IV-a-1], 7-bromo-6-(4-fluorophenyl)-3-methylpyrazolo[5,1-b][1,3]oxazole]: the chromatographic logP amounted to 3.56 under setting [4] and 3.56 under setting [2]. Under setting [5], `CC(=O)Nc1cc(-c2c(-c3ccc(F)cc3)nn3c2OCC(C)(C)C3)ccn1` [Example 109] gave a LogP of 1.75. In the case of `Nc1cc(-c2c(-c3ccccc3)nn3c2NCCC3)ccn1` [[II-b-1], 4-(2-Phenyl-4,5,6,7-tetrahydropyrazolo[1,5-a]pyrimidin-3-yl)pyridin-2-amine], the chromatographic logP runs as follows: under setting [1], 1.05; under setting [2], 1.05. Consider `O=c1cc(-c2ccc(F)cc2)[nH][nH]1` [[VII-2], 3-(4-fluorophenyl)-1H-pyrazol-5-ol], for which the chromatographic logP under setting [2] turned out to be 1.11.

Consider `Fc1ccc(-c2cc3n(n2)CCCO3)c(F)c1` [[VI-3], 2-(2,4-difluorophenyl)-6,7-dihydro-5H-pyrazolo[5,1-b][1,3]oxazine], for which the chromatographic logP came out at 2.38 under setting [6] and 2.38 under setting [2]. For the compound `C[C@@H]1C[C@H](C)n2nc(-c3ccc(F)cc3)c(Br)c2O1` (racemic) [[IV-9b], rac-cis-3-bromo-2-(4-fluorophenyl)-5,7-dimethyl-6,7-dihydro-5H-pyrazolo[5,1-b][1,3]oxazine], the chromatographic logP under setting [4] was 3.68 and the chromatographic logP under setting [2] came out at 3.68. For the compound `Nc1cc(-c2c(-c3ccccc3)nn3c2OCCC3)ccn1` [[II-1], 4-(2-phenyl-6,7-dihydro-5H-pyrazolo[5,1-b][1,3]oxazin-3-yl)pyridin-2-amine], the chromatographic logP under setting [1] was 0.87 and the chromatographic logP under setting [2] came to 0.87. For `c1ccc(-c2cc3n(n2)CCCO3)cc1` [[VI-1], 2-phenyl-6,7-dihydro-5H-pyrazolo[5,1-b][1,3]oxazine], the chromatographic logP came to 2.04 under setting [6] and 2.04 under setting [2]. For the compound `CC(=O)N1CCCn2nc(-c3ccccc3)c(-c3ccnc(N(C(C)=O)C(C)=O)c3)c21` [Example 58, N-acetyl-N-[4-(4-acetyl-2-phenyl-4,5,6,7-tetrahydropyrazolo[1,5-a]pyrimidin-3-yl)pyridin-2-yl]acetamide], the chromatographic logP is, setting by setting: under setting [7], 1.72; under setting [2], 1.72. `CC1Oc2c(Br)c(-c3ccc(F)cc3)nn2C1C` (stereo not drawn) [[IV-8], 7-bromo-6-(4-fluorophenyl)-2,3-dimethyl-2,3-dihydropyrazolo[5,1-b][1,3]oxazole]: the chromatographic logP reads like this: under setting [4], 3.39; (pH 2.7, major isomer of the diastereoisomer mixture, read-out: Log P (pH 2.7), major isomer) 3.39; (pH 2.7, minor isomer of the diastereoisomer mixture, read-out: Log P (pH 2.7), minor isomer) 3.46. Compound `O=C(CCn1ccnn1)Nc1cc(-c2c(-c3ccc(F)cc3)nn3c2OCCC3)ccn1` [Example 133] showed a log partition coefficient (LogP) under setting [3] of 1.23.

Regarding `C[Si]1(C)COc2c(Br)c(-c3cccs3)nn2C1` [[IV-12], 8-bromo-3,3-dimethyl-7-(2-thienyl)-3,4-dihydro-2H-pyrazolo[5,1-b][1,3,5]oxazasiline], the chromatographic logP is, setting by setting: under setting [4], 3.58; under setting [2], 3.58. On to `O=C1CCC(C(=O)Nc2cc(-c3c(-c4ccc(F)cc4)nn4c3OCCC4)ccn2)C1` (stereo not drawn) [Example 112], for which, under setting [3], the LogP came out at 1.38. `O=C(Nc1cc(-c2c(-c3ccc(F)cc3)nn3c2OCCC3)ccn1)C1CCSCC1` [Example 128] showed a lipophilicity (LogP) under setting [3] of 1.83. As to `Brc1c(-c2ccccc2)nn2c1OCCC2` [[IV-1], 3-bromo-2-phenyl-6,7-dihydro-5H-pyrazolo[5,1-b][1,3]oxazine], the chromatographic logP is, setting by setting: under setting [4], 2.66; under setting [2], 2.66. Compound `O=C(Nc1cc(-c2c(-c3ccc(F)cc3)nn3c2OCCC3)ccn1)c1cncc(F)c1` [Example 114] returned a lipophilicity (LogP) under setting [3] of 1.96. Under setting [3], `O=C(Nc1cc(-c2c(-c3ccc(F)cc3)nn3c2OCCC3)ccn1)c1c(F)cccc1F` [Example 71] returned a LogP of 2.43. Consider `CCc1coc2c(Br)c(-c3ccc(F)cc3)nn12` [[IV-a-2], 7-bromo-3-ethyl-6-(4-fluorophenyl)pyrazolo[5,1-b][1,3]oxazole], for which the chromatographic logP under setting [4] amounted to 4.18 and the chromatographic logP under setting [2] came to 4.18. `CCCC(CCC)C(=O)Nc1cc(-c2c(-c3ccc(F)cc3)nn3c2OCCC3)ccn1` [Example 67] gave a lipophilicity (LogP) under setting [3] of 2.64.

`CC1(C(=O)Nc2cc(-c3c(-c4ccc(F)cc4)nn4c3OCCC4)ccn2)COCOC1` [Example 118] came in with a LogP under setting [3] of 1.86. In turn, `CCC(=O)Nc1cc(-c2c(-c3ccc(F)cc3)nn3c2OCC(C)(C)C3)ccn1` [Example 110] returned a lipophilicity (LogP) under setting [5] of 2.00. With `CC(=O)Nc1cc(-c2c(-c3ccc(F)cc3)nn3cccnc23)ccn1` [Example 60, N-{4-[2-(4-Fluorophenyl)pyrazolo[1,5-a]pyrimidin-3-yl]pyridin-2-yl}acetamide], the chromatographic logP by setting is: under setting [7], 1.47; under setting [2], 1.47. As for `CC(C)[C@H](NC=O)C(=O)Nc1cc(-c2c(-c3ccc(F)cc3)nn3c2OCCC3)ccn1` [Example 138], under setting [3], the LogP amounted to 1.6. Under setting [3], `O=C(Nc1cc(-c2c(-c3ccc(F)cc3F)nn3c2OCCC3)ccn1)C1(Cl)CC1` [Example 50] had a lipophilicity (LogP) of 2.84.

Take `Fc1ccc(-c2cc3n(n2)CCCO3)cc1` [[VI-2], 2-(4-fluorophenyl)-6,7-dihydro-5H-pyrazolo[5,1-b][1,3]oxazine]: the chromatographic logP was 2.18 under setting [6] and 2.18 under setting [2]. In turn, `CC(=O)Nc1cc(-c2c(-c3ccc(F)cc3)nn3c2N(C(C)=O)CCC3)ccn1` [Example 94] displayed a log partition coefficient (LogP) under setting [5] of 1.26. The same measure, in the same setting: with `CCN1CCCn2nc(-c3ccc(F)cc3)c(-c3ccnc(NCc4ccccc4)c3)c21` [Example 97] the figure was 1.86. Under setting [3], `O=C(Cn1cccn1)Nc1cc(-c2c(-c3ccc(F)cc3)nn3c2OCCC3)ccn1` [Example 123] returned a LogP of 1.63. With `CCC(=O)Nc1cc(-c2c(-c3ccc(F)cc3)nn3c2N(C(=O)CC)CCC3)ccn1` [Example 91], under setting [5], the LogP amounted to 1.62.

`CC(C)=NOC(C)C(=O)Nc1cc(-c2c(-c3ccc(F)cc3)nn3c2OCCC3)ccn1` (stereo not drawn) [Example 136]: the log partition coefficient (LogP) under setting [3] stood at 2.34. For `Cc1cc(C(=O)Nc2cc(-c3c(-c4ccc(F)cc4)nn4c3OCCC4)ccn2)no1` [Example 134], the LogP under setting [3] is 2.53.
